Tests used:
[1] = target: T1, Potassium channel subfamily T member 1 (Homo sapiens, UniProt Q5JUK3); assay: Inhibition of wild type human KNa1.1 expressed in HEK293T cells by patch-clamp electrophysiology method; assay type: cell-based
T1 sequence (Q5JUK3 whole entry): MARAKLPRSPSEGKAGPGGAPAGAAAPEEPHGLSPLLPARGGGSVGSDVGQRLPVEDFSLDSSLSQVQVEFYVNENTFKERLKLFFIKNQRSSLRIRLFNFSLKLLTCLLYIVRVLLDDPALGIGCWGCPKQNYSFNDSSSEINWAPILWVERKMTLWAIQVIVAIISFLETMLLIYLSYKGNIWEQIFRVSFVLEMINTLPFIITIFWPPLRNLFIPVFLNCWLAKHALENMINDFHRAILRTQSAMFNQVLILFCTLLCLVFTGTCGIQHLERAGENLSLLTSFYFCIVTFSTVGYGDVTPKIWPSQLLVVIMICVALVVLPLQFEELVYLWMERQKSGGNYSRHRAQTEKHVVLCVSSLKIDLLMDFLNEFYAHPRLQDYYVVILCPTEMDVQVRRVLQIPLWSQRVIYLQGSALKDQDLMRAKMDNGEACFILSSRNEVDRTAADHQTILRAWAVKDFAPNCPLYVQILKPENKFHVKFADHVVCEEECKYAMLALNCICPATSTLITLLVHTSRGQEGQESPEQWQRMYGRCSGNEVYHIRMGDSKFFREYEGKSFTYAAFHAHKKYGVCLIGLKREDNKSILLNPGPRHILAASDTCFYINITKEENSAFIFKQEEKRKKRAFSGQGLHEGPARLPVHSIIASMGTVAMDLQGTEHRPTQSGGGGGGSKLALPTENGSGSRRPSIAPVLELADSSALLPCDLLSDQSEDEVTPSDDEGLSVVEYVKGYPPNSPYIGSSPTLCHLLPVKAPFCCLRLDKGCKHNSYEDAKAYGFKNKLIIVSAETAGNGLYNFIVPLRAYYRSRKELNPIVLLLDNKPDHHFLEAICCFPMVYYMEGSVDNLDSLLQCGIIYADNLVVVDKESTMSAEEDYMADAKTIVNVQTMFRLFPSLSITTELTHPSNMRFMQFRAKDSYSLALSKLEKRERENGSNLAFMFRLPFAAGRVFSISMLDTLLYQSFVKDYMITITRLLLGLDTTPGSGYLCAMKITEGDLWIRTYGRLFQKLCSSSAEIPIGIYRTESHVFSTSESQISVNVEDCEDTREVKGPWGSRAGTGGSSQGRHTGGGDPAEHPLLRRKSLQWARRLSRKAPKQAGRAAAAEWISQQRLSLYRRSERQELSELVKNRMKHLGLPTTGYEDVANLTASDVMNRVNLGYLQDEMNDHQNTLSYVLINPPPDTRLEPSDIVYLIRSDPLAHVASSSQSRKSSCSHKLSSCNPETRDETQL

HEK293 = assay: Cytotoxicity against HEK293 cells assessed as reduction in cell viability at 10 uM by CCK8 method relative to control; assay type: toxicity, cell-based; conditions: human, hek293, 10 µM
[2] = Cmax in male ICR mouse at 10 mg/kg, iv administered as single dose measured upto 24 hrs by HPLC analysis; assay type: ADME, organism-based; conditions: in vivo
[3] = Tmax in male ICR mouse at 10 mg/kg, iv administered as single dose measured upto 24 hrs by HPLC analysis; assay type: ADME, organism-based; conditions: in vivo
[4] = Half life in male ICR mouse at 10 mg/kg, iv administered as single dose measured upto 24 hrs by HPLC analysis; assay type: ADME, organism-based; conditions: in vivo
[5] = AUC (0 to t) in male ICR mouse at 10 mg/kg, iv administered as single dose measured upto 24 hrs by HPLC analysis; assay type: ADME, organism-based; conditions: in vivo
[6] = Clearance in male ICR mouse at 10 mg/kg, iv administered as single dose measured upto 24 hrs by HPLC analysis; assay type: ADME, organism-based; conditions: in vivo
[7] = MRT (0 to t) in male ICR mouse at 10 mg/kg, iv administered as single dose measured upto 24 hrs by HPLC analysis; assay type: ADME, organism-based; conditions: in vivo
[8] = Volume of distribution at steady state in male ICR mouse at 10 mg/kg, iv administered as single dose measured upto 24 hrs by HPLC analysis; assay type: ADME, organism-based; conditions: in vivo, read-out: Vdss
[9] = Cmax in male ICR mouse at 50 mg/kg, po administered as single dose measured upto 24 hrs by HPLC analysis; assay type: ADME, organism-based; conditions: in vivo
[10] = Tmax in male ICR mouse at 50 mg/kg, po administered as single dose measured upto 24 hrs by HPLC analysis; assay type: ADME, organism-based; conditions: in vivo
[11] = Half life in male ICR mouse at 50 mg/kg, po administered as single dose measured upto 24 hrs by HPLC analysis; assay type: ADME, organism-based; conditions: in vivo
[12] = AUC (0 to t) in male ICR mouse at 50 mg/kg, po administered as single dose measured upto 24 hrs by HPLC analysis; assay type: ADME, organism-based; conditions: in vivo
[13] = MRT (0 to t) in male ICR mouse at 50 mg/kg, po administered as single dose measured upto 24 hrs by HPLC analysis; assay type: ADME, organism-based; conditions: in vivo
[14] = Oral bioavailability in male ICR mouse at 50 mg/kg administered as single dose measured upto 24 hrs by HPLC analysis; assay type: ADME, organism-based; conditions: in vivo
[15] = Drug concentration in male ICR mouse brain at 10 mg/kg, iv measured after 0.5 hrs by LC-MS/MS analysis; assay type: ADME, organism-based; conditions: read-out: Ct
[16] = Drug concentration in male ICR mouse plasma at 10 mg/kg, iv measured after 0.5 hrs by LC-MS/MS analysis; assay type: ADME, organism-based
[17] = Ratio of drug concentration in male ICR mouse brain to plasma at 10 mg/kg, iv measured after 0.5 hrs by LC-MS/MS analysis; assay type: ADME, organism-based; conditions: brain and plasma, read-out: BPR
[18] = Drug concentration in male ICR mouse brain at 10 mg/kg, iv measured after 2 hrs by LC-MS/MS analysis; assay type: ADME, organism-based; conditions: read-out: Ct
[19] = Drug concentration in male ICR mouse plasma at 10 mg/kg, iv measured after 2 hrs by LC-MS/MS analysis; assay type: ADME, organism-based
[20] = Ratio of drug concentration in male ICR mouse brain to plasma at 10 mg/kg, iv measured after 2 hrs by LC-MS/MS analysis; assay type: ADME, organism-based; conditions: brain and plasma, read-out: BPR
[21] = Drug concentration in male ICR mouse brain at 50 mg/kg, po measured after 0.5 hrs by LC-MS/MS analysis; assay type: ADME, organism-based; conditions: read-out: Ct
[22] = Drug concentration in male ICR mouse plasma at 50 mg/kg, po measured after 0.5 hrs by LC-MS/MS analysis; assay type: ADME, organism-based
[23] = Ratio of drug concentration in male ICR mouse brain to plasma at 50 mg/kg, po measured after 0.5 hrs by LC-MS/MS analysis; assay type: ADME, organism-based; conditions: brain and plasma, read-out: BPR
[24] = Drug concentration in male ICR mouse brain at 50 mg/kg, po measured after 2 hrs by LC-MS/MS analysis; assay type: ADME, organism-based; conditions: read-out: Ct
[25] = Drug concentration in male ICR mouse plasma at 50 mg/kg, po measured after 2 hrs by LC-MS/MS analysis; assay type: ADME, organism-based
[26] = Ratio of drug concentration in male ICR mouse brain to plasma at 50 mg/kg, po measured after 2 hrs by LC-MS/MS analysis; assay type: ADME, organism-based; conditions: brain and plasma, read-out: BPR
[27] = Inhibition of KNa1.1 F327I mutant (unknown origin) expressed in HEK293T cells by patch-clamp electrophysiology method; assay type: cell-based; conditions: Homo sapiens, HEK-293T
[28] = target: T2, Voltage-gated inwardly rectifying potassium channel KCNH2 (Homo sapiens, UniProt Q12809); assay: Inhibition of human ERG expressed in Xenopus laevis oocytes by two-electrode voltage clamp method; assay type: toxicity, cell-based, Oocyte
[29] = Inhibition of human KNa1.1 Y796H mutant expressed in HEK293T cells by patch-clamp electrophysiology method; assay type: cell-based; conditions: HEK-293T
[30] = target: Sodium channel protein type 5 subunit alpha (Homo sapiens, UniProt Q14524); assay: Inhibition of Nav1.5 (unknown origin) expressed in HEK293T cells at 10 uM by patch-clamp electrophysiology method; assay type: cell-based
[31] = target: T2, Voltage-gated inwardly rectifying potassium channel KCNH2; assay: Inhibition of human ERG expressed in Xenopus laevis oocytes at 10 uM by two-electrode voltage clamp method; assay type: toxicity, cell-based; conditions: oocyte

T2 sequence (Q12809 whole entry): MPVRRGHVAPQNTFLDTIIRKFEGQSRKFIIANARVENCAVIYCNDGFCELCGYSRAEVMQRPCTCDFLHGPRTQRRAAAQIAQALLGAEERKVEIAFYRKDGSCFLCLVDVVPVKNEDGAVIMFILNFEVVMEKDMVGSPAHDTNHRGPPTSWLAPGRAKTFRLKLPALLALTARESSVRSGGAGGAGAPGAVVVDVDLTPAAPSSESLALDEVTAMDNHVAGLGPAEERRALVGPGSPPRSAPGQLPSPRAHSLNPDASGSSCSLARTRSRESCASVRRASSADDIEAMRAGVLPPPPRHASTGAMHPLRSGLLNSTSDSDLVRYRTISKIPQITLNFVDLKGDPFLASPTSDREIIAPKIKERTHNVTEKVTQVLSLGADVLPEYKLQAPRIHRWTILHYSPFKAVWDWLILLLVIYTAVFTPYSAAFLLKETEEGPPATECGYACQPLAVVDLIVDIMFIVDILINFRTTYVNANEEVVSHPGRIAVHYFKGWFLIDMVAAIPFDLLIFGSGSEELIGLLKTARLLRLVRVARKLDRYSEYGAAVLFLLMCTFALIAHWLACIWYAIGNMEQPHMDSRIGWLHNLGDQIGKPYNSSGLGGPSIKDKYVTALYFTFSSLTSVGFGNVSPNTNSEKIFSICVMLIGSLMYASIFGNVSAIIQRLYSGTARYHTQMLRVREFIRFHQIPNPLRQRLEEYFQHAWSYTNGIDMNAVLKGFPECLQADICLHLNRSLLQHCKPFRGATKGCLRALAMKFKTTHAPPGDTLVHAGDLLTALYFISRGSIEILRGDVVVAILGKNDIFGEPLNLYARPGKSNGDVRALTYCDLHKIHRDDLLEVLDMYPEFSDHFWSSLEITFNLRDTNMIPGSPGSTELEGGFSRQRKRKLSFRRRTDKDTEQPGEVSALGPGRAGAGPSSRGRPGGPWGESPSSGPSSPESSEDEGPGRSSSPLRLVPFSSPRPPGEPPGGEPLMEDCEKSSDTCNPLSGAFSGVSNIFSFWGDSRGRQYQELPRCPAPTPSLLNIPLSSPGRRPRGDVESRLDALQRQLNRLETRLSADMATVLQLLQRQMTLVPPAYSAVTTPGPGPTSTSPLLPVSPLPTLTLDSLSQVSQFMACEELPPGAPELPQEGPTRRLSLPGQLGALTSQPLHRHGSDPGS
Sequence of Sodium channel protein type 5 subunit alpha (Q14524 whole entry): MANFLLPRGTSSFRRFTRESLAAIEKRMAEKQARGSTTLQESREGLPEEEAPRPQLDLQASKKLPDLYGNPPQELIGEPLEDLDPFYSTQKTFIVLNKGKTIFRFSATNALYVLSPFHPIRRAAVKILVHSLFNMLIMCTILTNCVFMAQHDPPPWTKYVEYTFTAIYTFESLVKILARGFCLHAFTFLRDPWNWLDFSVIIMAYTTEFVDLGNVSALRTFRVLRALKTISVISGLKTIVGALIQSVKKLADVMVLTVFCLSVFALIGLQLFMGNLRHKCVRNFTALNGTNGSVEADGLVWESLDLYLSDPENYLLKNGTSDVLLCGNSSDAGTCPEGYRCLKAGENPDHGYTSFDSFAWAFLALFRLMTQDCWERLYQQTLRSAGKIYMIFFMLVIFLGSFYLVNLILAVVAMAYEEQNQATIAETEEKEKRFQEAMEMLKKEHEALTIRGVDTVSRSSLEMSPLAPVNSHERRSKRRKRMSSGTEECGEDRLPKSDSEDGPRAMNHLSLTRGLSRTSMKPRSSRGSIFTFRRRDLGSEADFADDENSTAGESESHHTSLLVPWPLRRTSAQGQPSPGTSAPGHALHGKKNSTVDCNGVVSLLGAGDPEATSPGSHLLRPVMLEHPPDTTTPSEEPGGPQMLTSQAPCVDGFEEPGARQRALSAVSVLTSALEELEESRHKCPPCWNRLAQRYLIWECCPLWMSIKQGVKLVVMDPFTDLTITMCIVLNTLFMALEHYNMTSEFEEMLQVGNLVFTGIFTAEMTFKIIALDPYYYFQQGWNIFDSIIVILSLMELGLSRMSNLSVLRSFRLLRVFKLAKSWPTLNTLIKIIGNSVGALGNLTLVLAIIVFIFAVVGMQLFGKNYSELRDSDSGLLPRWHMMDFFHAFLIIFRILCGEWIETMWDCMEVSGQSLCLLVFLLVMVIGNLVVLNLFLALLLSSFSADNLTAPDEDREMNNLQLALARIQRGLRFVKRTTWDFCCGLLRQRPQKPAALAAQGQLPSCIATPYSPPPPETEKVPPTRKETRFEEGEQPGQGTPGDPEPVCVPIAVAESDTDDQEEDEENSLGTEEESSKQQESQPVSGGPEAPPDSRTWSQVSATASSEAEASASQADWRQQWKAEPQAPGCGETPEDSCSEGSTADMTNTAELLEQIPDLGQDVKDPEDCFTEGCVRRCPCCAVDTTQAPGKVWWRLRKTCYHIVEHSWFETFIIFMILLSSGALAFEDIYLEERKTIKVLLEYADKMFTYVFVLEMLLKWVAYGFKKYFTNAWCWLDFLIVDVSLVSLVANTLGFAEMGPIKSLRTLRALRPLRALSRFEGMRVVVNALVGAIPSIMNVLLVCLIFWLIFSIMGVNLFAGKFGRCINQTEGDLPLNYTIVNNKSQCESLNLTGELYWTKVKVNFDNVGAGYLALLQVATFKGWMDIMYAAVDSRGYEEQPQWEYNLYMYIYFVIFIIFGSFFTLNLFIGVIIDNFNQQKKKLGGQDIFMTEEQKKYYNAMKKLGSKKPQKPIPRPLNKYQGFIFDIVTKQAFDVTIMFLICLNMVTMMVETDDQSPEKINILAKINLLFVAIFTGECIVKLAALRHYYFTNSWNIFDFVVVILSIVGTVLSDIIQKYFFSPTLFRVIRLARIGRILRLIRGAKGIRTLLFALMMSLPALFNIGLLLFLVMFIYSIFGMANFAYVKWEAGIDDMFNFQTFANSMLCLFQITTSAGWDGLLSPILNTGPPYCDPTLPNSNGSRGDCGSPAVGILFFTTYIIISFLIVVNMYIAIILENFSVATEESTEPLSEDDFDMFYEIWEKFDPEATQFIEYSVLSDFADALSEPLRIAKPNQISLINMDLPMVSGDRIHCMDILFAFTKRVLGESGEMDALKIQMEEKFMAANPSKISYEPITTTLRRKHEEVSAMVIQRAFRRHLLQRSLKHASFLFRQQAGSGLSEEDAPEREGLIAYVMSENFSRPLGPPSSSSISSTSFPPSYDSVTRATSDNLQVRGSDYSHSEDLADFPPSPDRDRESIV

Work on c1ccc(COc2ccc3ccccc3c2CCC2CCNCC2)cc1 yielded an IC50 [1] of 3.43 µM, an Activity (HEK293) of 99.63% and a Cmax [2] of 2180 ng/mL. The Tmax [3] was 4.8 min, the half-life [4] was 2.46 h and the AUC(0-t) at 24 h [5] was 4550 ng·h/mL. It also gave a clearance [6] of 36.6 mL/min/kg, an MRT last at 24 h [7] of 3.12 h and a Vd [8] of 6.91 L/kg. It also gave a Cmax [9] of 1290 ng/mL, a Tmax [10] of 0.5 h and a half-life [11] of 3.11 h. The AUC(0-t) at 24 h [12] was 7450 ng·h/mL, the MRT last at 24 h [13] was 4.96 h and the bioavailability [14] was 32.8%. For the same compound, the concentration at 0.5 h [15] was 8010 ng/mL, the concentration at 0.5 h [16] was 1030 ng/mL and the Kp at 0.5 h [17] was 7.8. For the same compound, the concentration at 2 h [18] was 3330 ng/mL, the concentration at 2 h [19] was 605 ng/mL and the Kp at 2 h [20] was 5.51. The concentration at 0.5 h [21] was 604 ng/mL, the concentration at 0.5 h [22] was 1290 ng/mL and the Kp at 0.5 h [23] was 0.47. For the same compound, the concentration at 2 h [24] was 1200 ng/mL, the concentration at 2 h [25] was 893 ng/mL and the Kp at 2 h [26] was 1.34. For the same compound, the IC50 [27] was 24.2 µM, the IC50 [28] was 90.2 µM and the IC50 [29] was 0.4 µM. The “inhibition (INH)” value [30] was “Not Active” and the “inhibition (INH)” value [31] was “Not Active”.

From ChEMBL document CHEMBL6127116, “Discovery of Potent and Selective Blockers Targeting the Epilepsy-Associated KNa1.1 Channel” (J Med Chem, 2024)
